The numbers were not newly measured in PMC2788793 (Molecular immunology, 2008), which cites them from elsewhere.

In the series the target is mouse H2-Kb molecule (Mus musculus, UniProt P01901). Particulars: ref Apostolopoulos et al., 2003.
Sequence of mouse H2-Kb molecule (P01901 whole entry, looked up): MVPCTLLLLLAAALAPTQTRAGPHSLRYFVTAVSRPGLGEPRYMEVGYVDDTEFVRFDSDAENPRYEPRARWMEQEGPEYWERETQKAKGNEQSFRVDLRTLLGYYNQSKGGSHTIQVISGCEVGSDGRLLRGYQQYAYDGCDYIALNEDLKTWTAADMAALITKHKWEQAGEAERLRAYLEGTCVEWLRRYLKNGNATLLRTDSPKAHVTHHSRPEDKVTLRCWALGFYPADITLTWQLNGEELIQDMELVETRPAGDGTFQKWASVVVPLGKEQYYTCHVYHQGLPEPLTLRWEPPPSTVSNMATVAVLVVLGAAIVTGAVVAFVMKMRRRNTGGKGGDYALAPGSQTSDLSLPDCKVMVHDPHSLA

Take SAPDT(GalNAc-Gal)RPA: the “Binding to mouse H2-Kb molecule” value is given as “completely abolished its binding”.
